{"source": "patent US9957236B2", "about": "“Selective inhibitors interfering with fibroblast growth factor receptor and FRS2 interaction for the prevention and treatment of cancer and other diseases” (LIMITED LIABILITY COMPANY “RUSSIAN PHARMACEUTICAL …, priority 2014, dated 2018)", "key": {"[1]": {"settings": "reaction of immune complexes, general anaphylaxis, degranulation of mast cells, conjuctival test"}, "[2]": {"tested_on": "HS578T breast cancer cells", "assay": "Crystal Violet proliferation assay, HS578T", "format": "cell-based", "settings": "low FGFR2 expression, bFGF 100 ng/ml, 7 days", "source_text": "This research used additional cell lines: SKOV3 (ovarian cancer, ATCC # HTB-77), HS578T (breast cancer, ATCC # HTB-126), T47D (breast cancer, ATCC #HTB-1336), modified line of non-small cells lung cancer A549, line of metastatic melanoma of skin Mel Kor (RF Patent No. 2287578), and additional study of antiangiogenic activity—cell line SVEC-4-10 (endothelial cells, ATCC #CRL-2181).\nThe cells were cultivated in environment RPMI-1640 (PANECO) (SKOV3, HS578T, T47D, Mel-Kor) or DMEM (PANECO) (SVEC-4-10) containing 10% of embryonal serum cattle (FCS, HyClone), 2 mM glutamine (PANECO), antibiotics (100 IU/mL penicillin and […] streptomycin (all PANECO)) at 37° C. and 5% CO2. Cells at 70-80% monolayer were used for the experiments.\nThe cells were planted in low density (30 t of cells/ml) in triplets on a 96-cavity plate in an environment containing 0.1% of FCS serum. […] Growth of cells was determined by the modified “Crystal Violet mitogenic method” for 7 days after the experiment start. […] The dye was dissolved in ethanol and measured on a spectrophotometer at 540-560 nm. The curve of cell proliferative activity inhibition was built by the dependence of the percent of the cell quantity (Y axis) on concentration of inhibitor RPT835 in the cavity of the plate (X axis). […]"}, "[3]": {"tested_on": "triple negative breast cancer SUM52PE", "assay": "Tumor growth of SUM52PE xenograft in nude mice", "format": "in vivo", "procedure": "Females of immunodeficient mice (nude) at the age of 8 weeks were administered 2×10^6 tumor cells of human cell lines with various expression of FGFR2: • cell line of triple-negative breast cancer SUM52PE strongly expressing FGFR2 (purchased from Asterand, Inc. (Detroit, Mich.) • cell line of triple negative breast cancer HS578T weakly expressing FGFR2 (purchased from ATCC (CRL-125) • cell line of non-small cell lung cancer NCI-H226 not expressing FGFR2 (purchased from ATCC (CRL-5826)\nAfter the tumor growth got established (1 mm^3), the mice were divided into control and treatment groups in accordance with the tumor type.\nControl group 1 (N=10): SUM52PE, administration of water through a stomach tube, daily.\nTreatment group 1 (N=10): SUM52PE, administration of inhibitor RPT835 through a stomach tube in a dose of 30 mg/kg, daily.\nSize of tumor and weight of animals were measured every 3 day. The mice underwent euthanasia when the tumor reached the size of 2,000 mm^3 or on the 60 day of the experiment."}, "FRS2α": {"target": "T1, FRS2α (Homo sapiens, UniProt Q8WU20)", "T1 sequence (Q8WU20 1-508)": "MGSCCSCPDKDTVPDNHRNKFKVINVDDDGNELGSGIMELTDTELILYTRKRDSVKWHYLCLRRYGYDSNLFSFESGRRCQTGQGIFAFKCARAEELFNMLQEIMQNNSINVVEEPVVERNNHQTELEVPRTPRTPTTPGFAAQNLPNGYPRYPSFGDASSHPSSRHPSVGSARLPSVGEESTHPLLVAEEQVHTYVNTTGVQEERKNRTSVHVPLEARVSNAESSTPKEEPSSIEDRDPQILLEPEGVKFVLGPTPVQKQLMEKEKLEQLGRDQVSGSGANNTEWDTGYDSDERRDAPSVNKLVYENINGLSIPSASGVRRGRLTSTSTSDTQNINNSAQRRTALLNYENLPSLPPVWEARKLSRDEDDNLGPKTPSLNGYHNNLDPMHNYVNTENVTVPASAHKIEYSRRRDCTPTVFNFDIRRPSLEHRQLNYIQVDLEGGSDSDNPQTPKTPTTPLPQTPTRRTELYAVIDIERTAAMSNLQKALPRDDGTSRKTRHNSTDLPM", "assay": "FRS2α phosphorylation in SUM-52 cells (Western blotting)", "format": "cell-based", "set-up": "endogenous in cells; host or cells: hFOB", "settings": "SUM-52 (FGFR2 IIIb), RPT835 1 micron, FGF-1 100 ng/ml", "procedure": "The research assessed the influence of inhibitor RPT835 determined by formula II of this invention, intervention with interaction of FGFR2 represented by two most frequent isoforms IIIb and IIIc with FRS2. For this, human cell line of embryonal osteoblasts (hFOB) expressing only FGFR2 […], and human cell line of breast cancer SUM-52 expressing FGFR2 IIIb (all main versions of isoform—C1, C2, C3) were chosen.\nCells were divided into the groups: • 1a) hFOB • 1b) hFOB, stimulating FGF-1 (100 ng/ml) • 1c) hFOB, cultivation with RPT835 (1 micron) and stimulation of FGF-1 (100 ng/ml) • 2a) SUM-52 • 2b) SUM-52, stimulation of FGF-1 (100 ng/ml) • 2c) SUM-52, cultivation with RPT835 (1 micron) and stimulation of FGF-1 (100 ng/ml)"}, "Acute toxicity": {"assay": "Acute toxicity", "format": "in vivo", "settings": "acute administration", "source_text": "Besides, acute toxicity of inhibitor RPT835 was studied in the following volume in a separate research: • Acute toxicity of the medicine was researched. […] The state of the animals after acute administration testifies of good tolerability of the medicine in doses exceeding the maximal therapeutic ones (about 4.3 mcg/kg) tens—hundreds of times."}}, "data": [{"compound": "Cc1cc([N+](=O)[O-])c(NS(=O)(=O)c2cccc(C(=O)O)c2)cc1-c1cccnc1", "note": "[RPT835, 3-(N-(4-methyl-2-nitro-5-(pyridin-3-yl)phenyl)sulfamoyl)benzoic acid]", "values": [{"measurement": "allergic properties", "setting": "[1]", "value": "does not show any allergic properties"}, {"measurement": "inhibition of proliferative activity", "setting": "[2]", "value": "moderate effect"}, {"measurement": "Slowdown of the tumor growth", "setting": "[3]; 30 day, 30 mg/kg daily", "value": 60.2, "unit": "%"}, {"measurement": "average size of the tumor", "setting": "[3]; 30 day, 30 mg/kg daily through a stomach tube", "value": "1,080.7±49 mm3"}, {"measurement": "Size of tumor (median)", "setting": "[3]; Day 7, 30 mg/kg daily through a stomach tube", "value": 48.0, "unit": "mm3"}, {"measurement": "Size of tumor (median)", "setting": "[3]; Day 10, 30 mg/kg daily through a stomach tube", "value": 112.0, "unit": "mm3"}, {"measurement": "Size of tumor (median)", "setting": "[3]; Day 13, 30 mg/kg daily through a stomach tube", "value": 181.0, "unit": "mm3"}, {"measurement": "Size of tumor (median)", "setting": "[3]; Day 16, 30 mg/kg daily through a stomach tube", "value": 256.0, "unit": "mm3"}, {"measurement": "Size of tumor (median)", "setting": "[3]; Day 19, 30 mg/kg daily through a stomach tube", "value": 417.0, "unit": "mm3"}, {"measurement": "Size of tumor (median)", "setting": "[3]; Day 22, 30 mg/kg daily through a stomach tube", "value": 591.0, "unit": "mm3"}, {"measurement": "Size of tumor (median)", "setting": "[3]; Day 25, 30 mg/kg daily through a stomach tube", "value": 831.5, "unit": "mm3"}, {"measurement": "Size of tumor (median)", "setting": "[3]; Day 28, 30 mg/kg daily through a stomach tube", "value": 958.5, "unit": "mm3"}, {"measurement": "Size of tumor (median)", "setting": "[3]; Day 31, 30 mg/kg daily through a stomach tube", "value": "1,088.0 mm3"}, {"measurement": "Size of tumor (median)", "setting": "[3]; Day 34, 30 mg/kg daily through a stomach tube", "value": "1,134 mm3"}, {"measurement": "Size of tumor (median)", "setting": "[3]; Day 37, 30 mg/kg daily through a stomach tube", "value": "1,174 mm3"}, {"measurement": "Size of tumor (median)", "setting": "[3]; Day 40, 30 mg/kg daily through a stomach tube", "value": "1,208 mm3"}, {"measurement": "FRS2α phosphorylation level", "setting": "FRS2α", "value": "completely suppressed the phosphorylation"}, {"measurement": "toxicity class (Hodge; Sidorov)", "setting": "Acute toxicity; 14 days observation, necropsy", "value": "IV class of low toxicity"}, {"measurement": "LD50 at 14 days", "setting": "Acute toxicity; in vivo, read-out: Median lethal dose (LD50)", "value": "> 2000", "unit": "mg/kg"}]}]}
